Data published in US20260217706A1, “HETEROCYCLIC COMPOUNDS, PREPARATION METHOD THEREFOR AND USE THEREOF” (GUANGZHOU YUFAN NANTU BIOTECHNOLOGIES CO., LTD, priority 2023, published 2026).

Tests used:
[1] = tested on: anti-CD3 activated human PBMCs; assay: Effect of compounds on the level of IL-2 secretion by anti-CD3 activated human PBMCs (IL-2 ELISA); format: cell-based; conditions: compound concentration at which fold change in IL-2 = 5; hPBMCs, CD3 antibody 2 μg/mL, 48 h, compound from 3 μM
Experimental: 2. Inoculate the resuspended cells into a 96-well cell culture plate at 200 ul/well of cell suspension, and incubate in a 37° C. cell incubator for 1 h;
3. Adjust the compound concentration with DMSO, starting at a final concentration of 3 μM, and perform a 3-fold dilution sequentially for 10 concentration gradients, with an additional DMSO control well set up; and
4. Adjust the CD3 antibody to an appropriate concentration to achieve a final concentration of 2 μg/mL, mix thoroughly, and incubate in a 37° C. cell incubator for 48h.
5. After 48 h, centrifuge at 1500 rpm for 5 min to collect the supernatant of the culture medium for the human IL-2 ELISA test.
The OD values obtained from the ELISA test are converted into the fold change (FC) in IL-2 concentration. […] The EC50 is calculated using GraphPad Prism. When the fold change=5, the corresponding compound concentration is CFC=5 (in nM).

CBL-B protein = CBL-B protein (Homo sapiens, UniProt Q13191); assay: CBL-B binding experiment (Streptavidin-Tb cryptate / Ligand L1 displacement); conditions: 8 nM CBL-B protein, 25° C., 60 minutes; Ki=Relative IC50/2
Chain of CBL-B protein (Q13191 whole entry): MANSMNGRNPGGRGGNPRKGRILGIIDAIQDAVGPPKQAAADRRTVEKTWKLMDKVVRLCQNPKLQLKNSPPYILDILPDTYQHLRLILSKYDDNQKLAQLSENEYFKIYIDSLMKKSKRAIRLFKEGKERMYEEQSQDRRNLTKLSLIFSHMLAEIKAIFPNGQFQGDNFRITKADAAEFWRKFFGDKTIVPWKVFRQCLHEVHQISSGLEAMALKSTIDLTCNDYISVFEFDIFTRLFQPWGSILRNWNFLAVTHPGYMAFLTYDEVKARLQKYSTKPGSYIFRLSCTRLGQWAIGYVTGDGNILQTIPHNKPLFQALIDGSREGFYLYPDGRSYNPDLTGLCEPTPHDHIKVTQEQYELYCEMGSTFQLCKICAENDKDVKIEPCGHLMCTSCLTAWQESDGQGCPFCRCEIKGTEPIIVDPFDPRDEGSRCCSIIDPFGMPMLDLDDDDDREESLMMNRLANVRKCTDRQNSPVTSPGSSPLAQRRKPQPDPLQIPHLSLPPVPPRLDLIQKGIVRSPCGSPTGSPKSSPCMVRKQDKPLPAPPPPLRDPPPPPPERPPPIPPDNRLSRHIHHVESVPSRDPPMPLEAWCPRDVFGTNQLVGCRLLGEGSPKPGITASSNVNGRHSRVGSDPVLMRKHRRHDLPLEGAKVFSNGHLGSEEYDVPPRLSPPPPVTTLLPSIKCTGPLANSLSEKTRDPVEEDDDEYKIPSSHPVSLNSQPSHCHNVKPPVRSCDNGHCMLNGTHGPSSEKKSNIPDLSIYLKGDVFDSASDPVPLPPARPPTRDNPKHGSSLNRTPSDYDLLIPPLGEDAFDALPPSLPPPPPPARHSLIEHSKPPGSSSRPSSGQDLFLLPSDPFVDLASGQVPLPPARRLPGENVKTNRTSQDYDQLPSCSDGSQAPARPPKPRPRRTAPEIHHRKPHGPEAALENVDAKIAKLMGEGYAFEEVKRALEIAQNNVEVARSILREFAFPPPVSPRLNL
Outline: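 Compounds in a 10-point DMSO series met 8 nM CBL-B protein in HEPES pH 7.5/NaCl/Triton/TCEP/BSA buffer at 25° C. for 60 min. A further 60 min at room temperature preceded the luminescence read, normalised to no-protein and DMSO wells. Ki was taken as relative IC50 divided by 2.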

Structure (SMILES)	Ki (CBL-B protein) [nM]	IL-2 CFC=5/nM [1] [nM]
C[C@H](NCc1cc2c(C(F)(F)F)cn(-c3cccc([C@]4(c5nncn5C)C[C@@H](C)C4)c3)c(=O)c2[nH]1)C(C)(C)C [Compound T158, 2-((((S)-3,3-dimethylbutan-2-yl)amino)methyl)-6-(3-((1s,3R)-3-methyl-1-(4-methyl-4H-1,2,4-triazol-3-yl)cyclobutyl)phenyl)-4-(trifluoromethyl)-1,6-dihydro-7H-pyrrolo[2,3-c]pyridin-7-one]	< 50	<500
C[C@H]1CCCN(Cc2cc3c(C(F)(F)F)cn(-c4cccc(C(C)(C)c5nncn5C)c4)c(=O)c3[nH]2)C1 [Compound T017, 6-[3-[1-methyl-1-(4-methyl-1,2,4-triazol-3-yl)ethyl]phenyl]-2-[[(3S)-3-methyl-1-piperidyl]methyl]-4-(trifluoromethyl)-1H-pyrrolo[2,3-c]pyridin-7-one]	< 50	<500
C[C@H]1CCCN(Cc2cc(C(F)(F)F)c3cn(-c4cccc([C@]5(c6nncn6C)C[C@@H](C)C5)c4)c(=O)n3c2)C1 (racemic) [Compound T140, 2-(3-((1s,3R)-3-methyl-1-(4-methyl-4H-1,2,4-triazol-3-yl)cyclobutyl)phenyl)-6-(((S)-3-methylpiperidin-1-yl)methy 1)-8-(trifluoromethyl)imidazo[1,5-a]pyridin-3(2H)-one]	< 50	<500
Cn1cnnc1[C@]1(c2cccc(-n3cc(C(F)(F)F)c4cc(CNCCC5CC5)[nH]c4c3=O)c2)C[C@H](C)C1 [Compound T045, 2-(((2-cyclopropylethyl)amino)methyl)-6-(3-((1s,3s)-3-methyl-1-(4-methyl-4H-1,2,4-triazol-3-yl)cyclobutyl)phenyl)-4-(trifluoromethyl)-1,6-dihydro-7H-pyrrolo[2,3-c]pyridin-7-one]	< 50	<500
C[C@H]1CCCN(Cc2cc3c(C4CC4)cn(-c4cccc([C@@H](c5nncn5C)C5CCC5)c4)c(=O)c3[nH]2)C1 [Compound T013, 6-(3-((S)-cyclobutyl(4-methyl-4H-1,2,4-triazol-3-yl)methyl)phenyl)-4-cyclopropyl-2-(((S)-3-methylpiperidin-1-yl)methyl)-1,6-dihydro-7H-pyrrolo[2,3-c]pyridin-7-one]	< 50	<500
CCN(Cc1cc2c(C(F)(F)F)cn(-c3cccc([C@]4(c5nncn5C)C[C@@H](OC)C4)c3)c(=O)c2[nH]1)CC(C)C [Compound T149, 2-((ethyl(isobutyl)amino)methyl)-6-(3-((1s,3s)-3-methoxy-1-(4-methyl-4H-1,2,4-triazol-3-yl)cyclobutyl)phenyl)-4-(trifluoromethyl)-1,6-dihydro-7H-pyrrolo[2,3-c]pyridin-7-one]	< 50	<500
C[C@H]1CCCN(Cc2cc3c(C(F)(F)F)cn(-c4cccc([C@]5(c6nncn6C)C[C@@H](C#N)C5)c4)c(=O)c3[nH]2)C1 [Compound T137, (1R,3s)-3-(4-methyl-4H-1,2,4-triazol-3-yl)-3-(3-(2-(((S)-3-methylpiperidin-1-yl)methyl)-7-oxo-4-(trifluoromethyl)-1,7-dihydro-6H-pyrrolo[2,3-c]pyridin-6-yl)phenyl)cyclobutane-1-carbonitrile]		<500
C[C@H]1CCCN(Cc2cc3c(C(F)(F)F)cn(-c4cccc([C@]5(c6nncn6C)C[C@@H](CC#N)C5)c4)c(=O)c3[nH]2)C1 [Compound T139, 2-((1R,3s)-3-(4-methyl-4H-1,2,4-triazol-3-yl)-3-(3-(2-(((S)-3-methylpiperidin-1-yl)methyl)-7-oxo-4-(trifluoromethyl)-1,7-dihydro-6H-pyrrolo[2,3-c]pyridin-6-yl)phenyl)cyclobutyl)acetonitrile]		<500
Cn1cnnc1C1(c2cccc(-n3cc(C(F)(F)F)c4cc(CN5CC[C@H](F)C5)[nH]c4c3=O)c2)CCC1 [Compound T020, 2-[[(3S)-3-fluoropyrrolidin-1-yl]methyl]-6-[3-[1-(4-methyl-1,2,4-triazol-3-yl)cyclobutyl]phenyl]-4-(trifluoromethyl)-1H-pyrrolo[2,3-c]pyridin-7-one]		<500
Cn1cnnc1C1(c2cccc(-n3cc(C(F)(F)F)c4cc(CN5CC[C@@H](F)C5)[nH]c4c3=O)c2)CCC1 [Compound T021, 2-[[(3R)-3-fluoropyrrolidin-1-yl]methyl]-6-[3-[1-(4-methyl-1,2,4-triazol-3-yl)cyclobutyl]phenyl]-4-(trifluoromethyl)-1H-pyrrolo[2,3-c]pyridin-7-one]		<500
CO[C@H]1C[C@@](c2cccc(-n3cc(C(F)(F)F)c4cc(CN5CCC[C@H]6C[C@H]65)[nH]c4c3=O)c2)(c2nncn2C)C1 [Compound T183]		<500

More lines, main results first:

Ki (CBL-B protein) [nM]	Structure (SMILES)	IL-2 CFC=5/nM [1] [nM]
< 50	Cn1cnnc1C1(c2cccc(-n3cc(C(F)(F)F)c4cc(CN5CCCC6(CC6)C5)[nH]c4c3=O)c2)CCC1 [Compound T054, 2-(5-azaspiro[2.5]octan-5-ylmethyl)-6-[3-[1-(4-methyl-1,2,4-triazol-3-yl)cyclobutyl]phenyl]-4-(trifluoromethyl)-1H-pyrrolo[2,3-c]pyridin-7-one]	<500
< 50	Cn1cnnc1[C@]1(c2cccc(-n3cc(C(F)(F)F)c4cc(CN5CC6CC6C5)[nH]c4c3=O)c2)C[C@H](C)C1 (stereo partly shown) [Compound T028, 2-((3-azabicyclo[3.1.0]hexan-3-yl)methyl)-6-(3-((1s,3s)-3-methyl-1-(4-methyl-4H-1,2,4-triazol-3-yl)cyclobutyl)phenyl)-4-(trifluoromethyl)-1,6-dihydro-7H-pyrrolo[2,3-c]pyridin-7-one]	<500
< 50	Cn1cnnc1C1(c2cccc(-n3cc(C(F)(F)F)c4cc(CN5CCC[C@H]6C[C@H]65)[nH]c4c3=O)c2)CCC1 [Compound T026, 2-(((1R,6S)-2-azabicyclo [4.1.0]heptan-2-yl)methyl)-6-(3-(1-(4-methyl-4H-1,2,4-triazol-3-yl)cyclobutyl)phenyl)-4-(trifluoromethyl)-1,6-dihydro-7H-pyrrolo[2,3-c]pyridin-7-one]	<500
< 50	Cn1cnnc1C1(c2cccc(-n3cc(C(F)(F)F)c4cc(CN5CC[C@H]6C[C@H]6C5)[nH]c4c3=O)c2)CCC1 [Compound T024, 2-[[(1R,6R)-3-azabicyclo[4.1.0]heptan-3-yl]methyl]-6-[3-[1-(4-methyl-1,2,4-triazol-3-yl)cyclobutyl]phenyl]-4-(trifluoromethyl)-1H-pyrrolo[2,3-c]pyridin-7-one]	<500
< 50	Cn1cnnc1C1(c2cccc(-n3cc(C(F)(F)F)c4cc(CN5C[C@H]6CCCC[C@H]6C5)[nH]c4c3=O)c2)CCC1 [Compound T086, 2-[[(3aS,7aR)-1,3,3a,4,5,6,7,7a-octahydroisoindol-2-yl]methyl]-6-[3-[1-(4-methyl-1,2,4-triazol-3-yl)cyclobutyl]phenyl]-4-(trifluoromethyl)-1H-pyrrolo[2,3-c]pyridin-7-one]	<500
< 50	Cn1cnnc1C1(c2cccc(-n3cc(C(F)(F)F)c4cc(CNCCC5CC5)[nH]c4c3=O)c2)CCC1 [Compound T008, 2-[(2-cyclopropylethylamino)methyl]-6-[3-[1-(4-methyl-1,2,4-triazol-3-yl)cyclobutyl]phenyl]-4-(trifluoromethyl)-1H-pyrrolo[2,3-c]pyridin-7-one]	<500
< 50	Cn1cnnc1C1(c2cccc(-n3cc(C(F)(F)F)c4cc(CNCCOC(F)(F)F)[nH]c4c3=O)c2)CCC1 [Compound T096, 6-[3-[1-(4-methyl-1,2,4-triazol-3-yl)cyclobutyl]phenyl]-2-[[2-(trifluoromethoxy)ethylamino]methyl]-4-(trifluoromethyl)-1H-pyrrolo[2,3-c]pyridin-7-one]	<500
< 50	CCCN(Cc1cc2c(C(F)(F)F)cn(-c3cccc(C4(c5nncn5C)CCC4)c3)c(=O)c2[nH]1)C(C)C [Compound T042, 2-[[isopropyl(propyl)amino]methyl]-6-[3-[1-(4-methyl-1,2,4-triazol-3-yl)cyclobutyl]phenyl]-4-(trifluoromethyl)-1H-pyrrolo[2,3-c]pyridin-7-one]	<500
< 50	Cn1cnnc1C1(c2cccc(-n3cc(C(F)(F)F)c4cc(CN5CCC[C@H](O)C5)[nH]c4c3=O)c2)CCC1 [Compound T038, 2-[[(3S)-3-hydroxy-1-piperidyl]methyl]-6-[3-[1-(4-methyl-1,2,4-triazol-3-yl)cyclobutyl]phenyl]-4-(trifluoromethyl)-1H-pyrrolo[2,3-c]pyridin-7-one]	<500
< 50	Cn1cnnc1[C@]1(c2cccc(-n3cc(C(F)(F)F)c4cc(CN5CCCC(C(F)F)C5)[nH]c4c3=O)c2)C[C@H](C)C1 (stereo partly shown) [Compound T157, 2-((3-(difluoromethyl)piperidin-1-yl)methyl)-6-(3-((1s,3s)-3-methyl-1-(4-methyl-4H-1,2,4-triazol-3-yl)cyclobutyl)phenyl)-4-(trifluoromethyl)-1,6-dihydro-7H-pyrrolo[2,3-c]pyridin-7-one]	<500
